Where two headings read alike, the source gives them in different places. Marks after values point to notes of the source that are not given here.
Assays:
[1] = for Mean values of the initial boron retention: before leaching, (standard deviations); for Mean of boron retained in wood (std. dev): mean of three samples
Experimental: Accelerated leaching tests were performed according to AWPA E11-97 (AWPA, 2003). Four Southern yellow pine (Pinus sp.) samples were leached, each in its own leaching flask. At the end of each leaching period, the leachate was collected and the samples were air dried for two weeks. The amount of boron retained in the wood was determined by inductive coupled plasma (ICP) spectrometry after boron was extracted with hydrochloric acid from the ground wood.

Brown rot = conditions: 12 weeks decay
Experimental: (§1) Decay tests were conducted on wood blocks, both leached and unleached. Samples were halved, with one group subjected to weathering and the other group maintained unweathered. Both sets of samples were subjected to a soil block culture test according to the AWPA E10-01 method. For each block, the percentage of mass loss was determined. These samples were allowed to decay for 12 weeks for brown rot decay and for 16 weeks for white rot decay.

White rot = conditions: for % mass loss (std. dev): White rot, 16 weeks decay
Experimental: as §1

Source text for Coptotermes formosanus: The wood cubes also were subjected to a termite mortality test (Coptotermes formosanus).

Mean values of the initial boron retention ([1]; Southern yellow pine cubes, samples for Leaching test): 2075.0^a (2.19)^b ppm | Mean of boron retained in wood (std. dev) ([1]; leaching duration 0 (Not unleached)): 2075.0 (80.18) ppm | Mean of boron retained in wood (std. dev) ([1]; leaching duration 6 hours): 1005.00 (125.2) ppm | Mean of boron retained in wood (std. dev) ([1]; leaching duration 24 hours): 737.13 (40.85) ppm | Mean of boron retained in wood (std. dev) ([1]; leaching duration 2 days): 99.32 (17.84) ppm | Mean of boron retained in wood (std. dev) ([1]; leaching duration 4 days): 25.37 (2.81) ppm | Mean of boron retained in wood (std. dev) ([1]; leaching duration 6 days): 2.908 (0.61) ppm | Mean of boron retained in wood (std. dev) ([1]; leaching duration 8 days): 2.941 (0.83) ppm | Mean of boron retained in wood (std. dev) ([1]; leaching duration 10 days): 2.89 (0.79) ppm | Mean of boron retained in wood (std. dev) ([1]; leaching duration 12 days): 2.79 (0.53) ppm | Mean of boron retained in wood (std. dev) ([1]; leaching duration 14 days): 2.8 (0.82) ppm | loss of boron on leaching (in words) ([1]; leaching of treated wood cubes): lost most of their boron within 6 hours | Mean values of the initial boron retention ([1]; samples for Brown rot test): 2227.31 (3.27) ppm | Mean values of the initial boron retention ([1]; samples for White rot test): 2225.43 (1.27) ppm
Structure (SMILES): OB(O)O [Boric acid only, Boric acid]
% mass loss (std. dev) (Brown rot; Not leached samples): 3.21 (0.22) % | % mass loss (std. dev) (Brown rot; leached samples): 18.88 (2.30) % | % mass loss (std. dev) (White rot; Not leached samples): 2.51 (0.51) % | % mass loss (std. dev) (White rot; leached samples): 16.59 (2.19) % | decay resistance (in words) (White rot; leached samples, summary of Table 4 for white rot and brown rot): no significant decay resistance | Termite mortality (%) (Coptotermes formosanus; in vivo): 4.3% | protection against termites (in words) (Coptotermes formosanus; treated wood cubes, boron-CA-SS after leaching): adequate protection against termites
